# Results published in the NIST ThermoML archive (doi:10.1021/je300382a).
# ± gives the expanded uncertainty stated by the source.
# Assays:
# [1] = refractive index (Na D-line) (dimensionless); conditions: 101.33 kPa, Liquid, Standard Abbe refractometry
# [2] = Ring tensiometer
# [3] = refractive index (Na D-line) (dimensionless); xn = mol fraction of the nth substance listed; conditions: 101 kPa, Liquid, Standard Abbe refractometry, x2 = 0
# [4] = xn = mol fraction of the nth substance listed; conditions: Ring tensiometer, x2 = 0
SMILES,refractive index ([1]; 283.15 K),refractive index ([1]; 293.15 K),refractive index ([1]; 303.15 K),refractive index ([1]; 313.15 K),refractive index ([1]; 323.15 K),surface tension liquid-gas ([2]; 283.15 K),surface tension liquid-gas ([2]; 293.15 K),surface tension liquid-gas ([2]; 303.15 K),surface tension liquid-gas ([2]; 313.15 K),surface tension liquid-gas ([2]; 323.15 K),refractive index ([3]; 283.15 K),refractive index ([3]; 293.15 K),refractive index ([3]; 303.15 K),refractive index ([3]; 313.15 K),refractive index ([3]; 323.15 K),surface tension liquid-gas ([4]; 283.15 K),surface tension liquid-gas ([4]; 293.15 K),surface tension liquid-gas ([4]; 303.15 K),surface tension liquid-gas ([4]; 313.15 K),surface tension liquid-gas ([4]; 323.15 K)
"CC(N)CN (stereo not given) [1,2-propanediamine]",1.451 ± 0.0004,1.4458 ± 0.0004,1.4409 ± 0.0004,1.4362 ± 0.0004,1.4314 ± 0.0004,35 ± 0.5 mN/m,33.8 ± 0.5 mN/m,32.7 ± 0.5 mN/m,31.4 ± 0.5 mN/m,30.3 ± 0.5 mN/m,–,–,–,–,–,–,–,–,–,–
O [water] + CC(N)CN,–,–,–,–,–,–,–,–,–,–,1.3343 ± 0.0003,1.333 ± 0.0003,1.3319 ± 0.0003,1.3306 ± 0.0003,1.329 ± 0.0003,74.2 ± 0.9 mN/m,72.6 ± 0.9 mN/m,71.3 ± 0.9 mN/m,69.2 ± 0.9 mN/m,67.7 ± 0.9 mN/m
NCc1ccccc1 [benzylamine],1.5516 ± 0.0004,1.5445 ± 0.0004,1.5393 ± 0.0004,1.5328 ± 0.0004,1.5279 ± 0.0004,37.9 ± 0.6 mN/m,37.1 ± 0.5 mN/m,36.3 ± 0.5 mN/m,35.6 ± 0.5 mN/m,35 ± 1 mN/m,–,–,–,–,–,–,–,–,–,–
O [water] + NCc1ccccc1,–,–,–,–,–,–,–,–,–,–,1.3343 ± 0.0003,1.333 ± 0.0003,1.3319 ± 0.0003,1.3306 ± 0.0003,1.329 ± 0.0003,74.2 ± 0.9 mN/m,72.6 ± 0.9 mN/m,71.1 ± 0.9 mN/m,69.2 ± 0.9 mN/m,67.7 ± 0.9 mN/m
